Assay results from patent US20140135310A1, “SULPHONAMIDE DERIVATIVES OF ALICYCLIC AMINES FOR THE TREATMENT OF CENTRAL NERVOUS SYSTEM DISEASES” (Adamed Sp. z o.o., priority 2011, published 2014).
Where two headings read alike, the source gives them in different places.

Tests used:
5-HT7 receptor = biological target: T1, 5-HT7 receptor (Homo sapiens, UniProt P34969); assay: Radioligand binding assay, serotoninergic 5-HT7 receptors; details: binding assay result in %, Table 5a;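 note: test compound at 1 µM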
T1 construct: purchased PerkinElmer
In short: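 Ki values used the Cheng–Prusoff equation, with KD from Scatchard analysis, applied to IC50 from Hill fits of human 5-HT7 radioligand competition curves. Bound radioligand was counted by scintillation, and excess unlabelled ligand set the non-specific binding.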

[1] = biological target: 5-HT7 serotoninergic receptors (Homo sapiens, UniProt P34969); assay: Cellular functional assay, 5-HT7 serotoninergic receptors; type: cell-based; details: for 5-HT7 ag [%]: agonist mode, percent of control specific agonist response
Method: (§1) The results are expressed as a percent of control specific agonist response ((measured specific response/control specific agonist response)×100) obtained in the presence of the test compounds.
(§2) The EC50 values (concentration producing a half-maximal specific response) and IC50 values (concentration causing a half-maximal inhibition of the control specific agonist response) were determined by non-linear regression analysis of the concentration-response curves generated with mean replicate values using Hill equation curve fitting (Y=D+[(A−D)/(1+(C/C50)nH)], where Y=specific response, D=minimum specific response, A=maximum specific response, C=compound concentration, and C50=EC50 or IC50, and nH=slope factor). This analysis was performed using a software developed at Cerep (Hill software) and validated by comparison with data generated by the commercial software SigmaPlot® 4.0 for Windows® (© 1997 by SPSS Inc.).
(§3) For the antagonists, the apparent dissociation constants (Kb) were calculated using the modified Cheng Prusoff equation (Kb=IC50/(1+(A/EC50A)), where A=concentration of reference agonist in the assay, and EC50A=EC50 value of the reference agonist).

[2] = biological target: T2, 5-HT1A receptor (rat hippocampus) (Rattus norvegicus, UniProt P19327); assay: Radioligand binding assay, serotoninergic 5-HT1A receptors; details: binding assay result in %, Table 5a;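 note: test compound at 1 µM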
T2 construct: hippocampus; from tissue; host or cells: rat hippocampus
T2 sequence (P19327 1-422): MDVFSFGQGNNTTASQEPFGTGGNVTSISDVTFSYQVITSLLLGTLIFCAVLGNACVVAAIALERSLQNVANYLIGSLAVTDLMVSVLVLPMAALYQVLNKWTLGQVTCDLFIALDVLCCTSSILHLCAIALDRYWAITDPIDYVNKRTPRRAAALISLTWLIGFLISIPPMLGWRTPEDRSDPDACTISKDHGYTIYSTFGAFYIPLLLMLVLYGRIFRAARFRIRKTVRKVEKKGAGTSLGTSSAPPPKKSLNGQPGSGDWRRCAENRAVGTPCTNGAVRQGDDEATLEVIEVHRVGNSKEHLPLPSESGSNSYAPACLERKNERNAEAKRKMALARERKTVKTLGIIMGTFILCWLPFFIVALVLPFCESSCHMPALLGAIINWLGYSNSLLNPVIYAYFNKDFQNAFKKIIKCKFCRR

M3 muscarinic receptors = biological target: T3, M3 muscarinic receptors (Homo sapiens, UniProt P20309); assay: Radioligand binding assay, muscarinic M3 receptors; details: test compound 1×10^−6 M
T3 construct: expressed in transfected cells; host or cells: CHO cells
In short: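 Radioligand competition binding, detected by scintillation counting; non-specific binding defined with excess unlabelled ligand. Results given as % inhibition of control specific binding; IC50 from Hill-equation fit of competition curves, Ki via Cheng-Prusoff with radioligand KD from Scatchard plot.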

[3] = biological target: T4, serotonin transporter (SERT) (Homo sapiens, UniProt P31645); assay: Radioligand binding assay, serotonin transporter (SERT); details: binding assay, test compound 1×10^−6 M
T4 construct: expressed in transfected cells; host or cells: CHO cells
In short: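 Values are derived from competition curves fitted by the Hill equation to give IC50, then converted to Ki by Cheng-Prusoff with radioligand Kd from Scatchard analysis. Specific binding equals total minus non-specific (excess cold ligand), counted by scintillation, and is also expressed as percent inhibition of control.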

[4] = biological target: 5-HT2A serotoninergic receptors (Homo sapiens, UniProt P28223); assay: Cellular functional assay, 5-HT2A serotoninergic receptors; type: cell-based
Method: as §1
as §2, with “factor).” for “factor). This analysis was performed using a software developed at Cerep (Hill software) and validated by comparison with data generated by the commercial software SigmaPlot® 4.0 for Windows® (© 1997 by SPSS Inc.).”
as §3

[5] = system: α1 adrenergic receptors (rat cerebral cortex); assay: Radioligand binding assay, adrenergic α1 receptors; details: test compound 1×10^−6 M
In short: (§4)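 Values derive from radioligand displacement, with non-specific binding defined by excess cold ligand and detection by scintillation. Hill-fit IC50s were converted to Ki via Cheng-Prusoff using Scatchard-derived Kd; percent inhibition of control specific binding also reported.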

[6] = biological target: 5-HT6 serotoninergic receptors (Homo sapiens, UniProt P50406); assay: Cellular functional assay, 5-HT6 serotoninergic receptors; type: cell-based; details: for 5-HT6 ag [%]: agonist mode, percent of control specific agonist response
Method: as §1, §2, §3

σ receptors = assay: Radioligand binding assay, σ receptors; details: rat cerebral cortex, [3H]DTG 8 nM
In short: as §4

[7] = agonist mode, percent of control specific agonist response

Chain of 5-HT7 serotoninergic receptors (P34969 whole entry): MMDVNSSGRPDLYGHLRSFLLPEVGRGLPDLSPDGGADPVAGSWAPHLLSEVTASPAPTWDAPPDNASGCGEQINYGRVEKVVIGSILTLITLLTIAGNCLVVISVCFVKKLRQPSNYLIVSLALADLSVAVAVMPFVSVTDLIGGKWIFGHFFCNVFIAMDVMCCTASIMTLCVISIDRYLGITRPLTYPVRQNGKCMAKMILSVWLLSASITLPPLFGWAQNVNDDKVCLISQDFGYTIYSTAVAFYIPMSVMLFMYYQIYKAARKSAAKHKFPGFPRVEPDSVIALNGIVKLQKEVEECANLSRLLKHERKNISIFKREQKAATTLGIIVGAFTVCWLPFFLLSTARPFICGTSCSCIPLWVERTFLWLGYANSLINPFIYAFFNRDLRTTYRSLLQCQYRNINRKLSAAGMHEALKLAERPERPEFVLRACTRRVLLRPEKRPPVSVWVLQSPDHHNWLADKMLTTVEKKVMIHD
T1 sequence (P34969 whole entry): as above
T3 sequence (P20309 whole entry): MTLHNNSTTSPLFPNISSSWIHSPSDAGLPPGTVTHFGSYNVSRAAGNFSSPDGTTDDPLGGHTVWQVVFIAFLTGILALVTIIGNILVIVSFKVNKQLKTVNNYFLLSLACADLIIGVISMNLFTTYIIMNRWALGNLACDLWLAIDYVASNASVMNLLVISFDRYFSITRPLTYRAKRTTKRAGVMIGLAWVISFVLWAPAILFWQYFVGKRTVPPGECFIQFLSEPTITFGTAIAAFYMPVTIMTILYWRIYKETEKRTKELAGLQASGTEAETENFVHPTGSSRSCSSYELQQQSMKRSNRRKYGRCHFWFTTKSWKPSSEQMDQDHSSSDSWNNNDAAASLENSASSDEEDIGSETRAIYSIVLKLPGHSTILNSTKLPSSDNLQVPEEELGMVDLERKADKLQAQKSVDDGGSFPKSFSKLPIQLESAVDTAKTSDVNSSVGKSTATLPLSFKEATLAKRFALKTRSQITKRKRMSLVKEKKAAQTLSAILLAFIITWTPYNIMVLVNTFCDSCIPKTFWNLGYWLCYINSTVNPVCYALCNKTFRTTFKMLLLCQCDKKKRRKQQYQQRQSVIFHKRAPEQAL
T4 sequence (P31645 whole entry): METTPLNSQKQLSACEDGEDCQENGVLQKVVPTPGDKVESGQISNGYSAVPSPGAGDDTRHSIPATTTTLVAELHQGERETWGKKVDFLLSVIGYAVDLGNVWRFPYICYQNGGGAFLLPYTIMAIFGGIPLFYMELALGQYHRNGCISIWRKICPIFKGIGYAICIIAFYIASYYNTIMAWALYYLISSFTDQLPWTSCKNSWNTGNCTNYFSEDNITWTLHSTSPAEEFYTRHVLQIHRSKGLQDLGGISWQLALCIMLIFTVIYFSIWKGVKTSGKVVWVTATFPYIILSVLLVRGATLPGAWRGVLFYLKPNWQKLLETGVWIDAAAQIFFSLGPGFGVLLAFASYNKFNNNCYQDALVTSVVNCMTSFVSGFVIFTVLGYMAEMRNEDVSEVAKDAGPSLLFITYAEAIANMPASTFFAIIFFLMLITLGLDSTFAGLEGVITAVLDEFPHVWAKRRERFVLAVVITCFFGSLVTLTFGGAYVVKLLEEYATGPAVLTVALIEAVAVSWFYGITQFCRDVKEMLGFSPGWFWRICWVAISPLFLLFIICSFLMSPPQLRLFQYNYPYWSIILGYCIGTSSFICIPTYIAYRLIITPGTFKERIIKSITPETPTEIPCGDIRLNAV
Chain of 5-HT6 serotoninergic receptors (P50406 whole entry): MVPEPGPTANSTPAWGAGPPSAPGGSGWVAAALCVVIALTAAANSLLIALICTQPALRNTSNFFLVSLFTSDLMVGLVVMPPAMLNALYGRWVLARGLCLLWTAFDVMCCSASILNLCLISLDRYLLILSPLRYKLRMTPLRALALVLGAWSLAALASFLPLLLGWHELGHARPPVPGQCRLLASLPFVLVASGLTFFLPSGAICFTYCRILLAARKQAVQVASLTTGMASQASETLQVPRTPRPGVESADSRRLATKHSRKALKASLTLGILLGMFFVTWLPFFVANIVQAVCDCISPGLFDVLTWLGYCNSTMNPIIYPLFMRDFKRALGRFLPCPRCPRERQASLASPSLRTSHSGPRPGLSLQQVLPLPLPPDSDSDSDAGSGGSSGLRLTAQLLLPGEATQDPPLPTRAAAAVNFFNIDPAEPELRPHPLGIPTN
Chain of 5-HT2A serotoninergic receptors (P28223 whole entry): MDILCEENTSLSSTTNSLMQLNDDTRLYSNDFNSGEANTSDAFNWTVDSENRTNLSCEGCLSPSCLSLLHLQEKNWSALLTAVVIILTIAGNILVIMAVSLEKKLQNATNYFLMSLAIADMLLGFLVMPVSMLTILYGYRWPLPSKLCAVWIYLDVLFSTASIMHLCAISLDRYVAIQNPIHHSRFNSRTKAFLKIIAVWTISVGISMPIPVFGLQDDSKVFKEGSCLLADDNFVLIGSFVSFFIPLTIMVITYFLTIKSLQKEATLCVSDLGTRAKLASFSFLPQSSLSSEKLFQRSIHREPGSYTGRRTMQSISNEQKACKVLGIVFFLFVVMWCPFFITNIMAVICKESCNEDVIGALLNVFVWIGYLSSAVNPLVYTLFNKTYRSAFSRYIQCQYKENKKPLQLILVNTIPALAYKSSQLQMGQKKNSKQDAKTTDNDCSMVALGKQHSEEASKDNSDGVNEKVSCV

Compound | inhibition at 1 µM (5-HT7 receptor) [%] | 5-HT7 ag [%] [1] [%] | inhibition at 1 µM [2] [%] | inhibition at 1 µM (M3 muscarinic receptors) [%] | inhibition at 1 µM [3] [%] | 5-HT2A ag [%] [4] [%] | α1 [%] [5] [%] | 5-HT6 ag [%] [6] [%] | σ [%] (σ receptors) | 5-HT2A ag [%] [4, 7] [%] | 5-HT7 [%] (5-HT7 receptor) | 5-HT7 antag [%] ([1]; antagonist mode) | 5-HT1A [%] [2] [%] | M3 [%] (M3 muscarinic receptors) | SERT [%] [3] [%] | 5-HT6 antag [%] ([6]; antagonist mode) | Kb ([1]; apparent dissociation constant, modified Cheng Prusoff equation, read-out: 5-HT7 antag Kb) [nM] | Kb ([4]; apparent dissociation constant, modified Cheng Prusoff equation, read-out: 5-HT2A antag Kb) [nM]
Cc1cc(S(=O)(=O)NC2CCN(CCCc3noc4cc(F)ccc34)C2)c(C)s1 (stereo not shown) [Compound 221, N-[1-[3-(6-Fluoro-1,2-benzoxazol-3-yl)propyl]pyrrolidin-3-yl]-2,5-dimethyl-thiophene-3-sulphonamide] | 95 | 2 | 67 | 12 | 67 | −2 | 85 | −4 | 83 | – | – | – | – | – | – | – | – | –
Cc1c(S(=O)(=O)N[C@H]2CCN(CCCc3noc4cc(F)ccc34)C2)sc2ccc(Cl)cc12 [Compound 205, 5-Chloro-N-[(3S)-1-[3-(6-fluoro-1,2-benzoxazol-3-yl)propyl]pyrrolidin-3-yl]-3-methyl-benzothiophene-2-sulphonamide] | 98 | −1 | 63 | 3 | 45 | – | 71 | 1 | 92 | −3 | – | – | – | – | – | – | – | –
Cc1cc(S(=O)(=O)N[C@@H]2CCN(CCCc3noc4cc(F)ccc34)C2)c(C)s1 [Compound 222, N-[(3R)-1-[3-(6-Fluoro-1,2-benzoxazol-3-yl)propyl]pyrrolidin-3-yl]-2,5-dimethyl-thiophene-3-sulphonamide] | 102 | −1 | 72 | 18 | 2 | −1 | 92 | −1 | 95 | – | – | – | – | – | – | – | – | –
COc1ccc2cc(S(=O)(=O)NC3CCN(CCCc4noc5cc(F)ccc45)C3)ccc2c1 (stereo not shown) [Compound 227, N-[1-[3-(6-Fluoro-1,2-benzoxazol-3-yl)propyl]pyrrolidin-3-yl]-6-methoxy-naphthalene-2-sulphonamide] | 91 | −2 | 62 | 13 | 69 | – | 85 | −4 | 59 | −2 | – | – | – | – | – | – | – | –
O=S(=O)(N[C@H]1CCN(CCCc2noc3cc(F)ccc23)C1)c1cc2ccc(Cl)cc2s1 [Compound 199, 6-Chloro-N-[(3S)-1-[3-(6-fluoro-1,2-benzoxazol-3-yl)propyl]pyrrolidin-3-yl]benzothiophene-2-sulphonamide] | 94 | 1 | 38 | 38 | 39 | – | 66 | −3 | 80 | −2 | – | – | – | – | – | – | – | –
O=S(=O)(NCC1CCN(CCCc2noc3cc(F)ccc23)C1)c1cccc2ccccc12 (stereo not shown) [Compound 239, N-[[1-[3-(6-Fluoro-1,2-benzoxazol-3-yl)propyl]pyrrolidin-3-yl]methyl]naphthalene-1-sulphonamide] | 92 | 1 | 56 | 23 | 36 | −2 | 91 | 2 | 97 | – | – | – | – | – | – | – | – | –
Cc1c(S(=O)(=O)NC2CCN(CCCc3noc4cc(F)ccc34)C2)sc2ccc(F)cc12 (stereo not shown) [Compound 28, 5-Fluoro-N-[1-[3-(6-fluoro-1,2-benzoxazol-3-yl)propyl]pyrrolidin-3-yl]-3-methyl-benzothiophene-2-sulphonamide] | 94 | −3 | 61 | 13 | 54 | – | 70 | −1 | 70 | −2 | – | – | – | – | – | – | – | –
N-[1-[3-(6-Fluoro-1,2-benzoxazol-3-yl)propyl]pyrrolidin-3-yl]-1-methyl-imidazole-4-sulphonamide [Compound 217] | – | 5 | – | – | – | – | 40 | −6 | 86 | −2 | 97 | 74 | 54 | 6 | 90 | 85 | – | –
O=S(=O)(NC1CCN(CCOc2nsc3ccccc23)C1)c1ccc2ccccc2c1 (stereo not shown) [Compound 39, N-[1-[2-(1,2-Benzothiazol-3-yloxy)ethyl]pyrrolidin-3-yl]naphthalene-2-sulphonamide] | 90 | 1 | 99 | 19 | 29 | 3 | 29 | −1 | 54 | – | – | – | – | – | – | – | – | –
O=S(=O)(N[C@H]1CCN(CCCc2noc3cc(F)ccc23)C1)c1cc2ccccc2o1 [Compound 215, N-[(3S)-1-[3-(6-Fluoro-1,2-benzoxazol-3-yl)propyl]pyrrolidin-3-yl]benzo-furan-2-sulphonamide] | 98 | 0 | 52 | 39 | 35 | – | 89 | −2 | 81 | −2 | – | – | – | – | – | – | – | –
O=S(=O)(N[C@@H]1CCN(CCCc2noc3cc(F)ccc23)C1)c1cc2ccc(Cl)cc2s1 [Compound 198, 6-Chloro-N-[(3R)-1-[3-(6-fluoro-1,2-benzoxazol-3-yl)propyl]pyrrolidin-3-yl]benzothiophene-2-sulphonamide] | 93 | 1 | 45 | 37 | 44 | – | 76 | −1 | 86 | −3 | – | – | – | – | – | – | – | –
O=S(=O)(N[C@H]1CCN(CCCc2noc3cc(F)ccc23)C1)c1csc2ccccc12 [Compound 225, N-[(3S)-1-[3-(6-Fluoro-1,2-benzoxazol-3-yl)propyl]pyrrolidin-3-yl]benzothiophene-3-sulphonamide] | 100 | 0 | 62 | 23 | 77 | – | 93 | 1 | 96 | −1 | – | – | – | – | – | – | – | –
O=S(=O)(NC1CCN(CCCc2noc3cc(F)ccc23)C1)c1ccc2ccccc2c1 (stereo not shown) [Compound 21, N-[1-[3-(6-Fluoro-1,2-benzoxazol-3-yl)propyl]pyrrolidin-3-yl]naphthalene-2-sulphonamide] | 100 | −1 | 66 | -11 | 59 | 2 | 95 | 1 | 60 | – | – | – | – | – | – | – | 1.7 | 8.3
